Reference: patent US8114850B2, “Antiproliferative activity of G-rich oligonucleotides and method of using same to bind to nucleolin” (Advanced Cancer Therapeutics, LLC, priority 1999, dated 2012)

Tests used:
[1] = system: MDA-MB-231 breast cancer cells; assay: MTT cell growth assay, MDA-MB-231 cells; format: cell-based, human; details: for growth of MDA-MB-231 cells (MTT): 15 uM on day 1, half the initial dose on days 2-4, 3′-propylamino oligonucleotides, vs water control, FIG. 1B
Procedure: Cells were plated at low density ([…] cells per well, depending on cell line) in the appropriate serum-supplemented medium in 96-well plates (one plate per MTT assay time point) and grown under standard conditions of cell culture. The following day (day 1) oligonucleotide, or water as control, was added to the culture medium to give a final concentration of 15 uM. Further oligonucleotide, equivalent to half the initial dose, was added to the culture medium on days two, three and four. Cells were assayed using the MTT assay (Morgan (1998) Methods. Mol. Biol. 79, 179-183) on days one, three, five, seven and nine after plating. The culture medium was not changed throughout the duration of the experiment (which was the time required for untreated cells to grow to confluence). Experiments were performed in triplicate and bars represent the standard error of the data. For the experiment shown in FIG. 7A, MDA-MB-231 breast cancer cells (5×10^2 cells per well) were plated in a 96-well plate. After twenty-four hours, a single dose of oligonucleotide, or equal volume of PBS as a control, was added to the culture medium to a final concentration of 10 uM. Viable cells were assessed seven days after plating using the MTT assay. For the experiment using 3′-unmodified oligonucleotides (FIG. 7D), serum-supplemented medium was replaced by serum-free medium containing oligonucleotide (or serum-free medium alone in control wells). After incubation at 37° C. for four hours, fetal calf serum (Life Technologies, Inc.) was added to the medium to give 10% v/v.

[2] = target: T1, GRO-binding protein/nucleolin (HeLa nuclear extracts) (Homo sapiens, UniProt P19338); assay: EMSA of 32P-labeled oligonucleotides with HeLa nuclear extracts; details: 32P-labeled oligonucleotide, FIG. 6A
T1 construct: HeLa nuclear extracts used in EMSAs were purchased from Promega Inc. (bandshift grade); host or cells: HeLa nuclear extract (bandshift grade), purchased
Procedure: Oligonucleotides were 5′-labeled with 32p using T4 kinase. Labeled oligonucleotide (final concentration 1 nM, approximately 50,000 cpm) was preincubated for thirty minutes at 37° C. either alone or in the presence of unlabeled competitor oligonucleotide. Nuclear extracts were added, and the sample was incubated a further thirty minutes at 37° C. Both the preincubation and binding reactions were carried out in Buffer A (20 mM Tris. HCl pH 7.4, 140 mM KCl, 2.5 mM MgCl2, 1 mM dithiothreitol, 0.2 mM phenylmethyl sulfonyl fluoride and 8% (v/v) glycerol). Electrophoresis was carried out using 5% polyacrylamide gels in TBE buffer (90 mM Tris borate, 2 mM EDTA).
HeLa nuclear extracts used in EMSAs were purchased from Promega Inc. (bandshift grade). Nuclear and cytoplasmic extracts from MDA-MB-231 cells were prepared using the protocol described in F. M. Ausubel et al. Ausubel et al. (Eds.) (1996) Current Protocols in Molecular Biology, Wiley, N.Y., Section 12.1. Plasma membrane proteins were prepared from MDA-MB-231 cells using a method previously described. Yao et al. (1996) Biochemical Pharmacology 51, 431-436; Naito et al. (1988) J. Biol. Chem. 263, 11887-11891.
To investigate further the mechanism of the growth modulatory effects, binding of the oligonucleotides to cellular proteins was examined. […]

[3] = target: T2, 106 kDa nuclear protein (p106, GRO-binding protein/nucleolin) (Homo sapiens, UniProt P19338); assay: Southwestern blot of HeLa nuclear extracts; details: 32P-labeled oligonucleotide, 4° C.; FIG. 6D
T2 construct: HeLa nuclear extracts used in EMSAs were purchased from Promega Inc. (bandshift grade); host or cells: HeLa nuclear extract (bandshift grade), purchased
Procedure: Nuclear extracts were electrophoresed on a 8% polyacrylamide-SDS gel and transferred to polyvinylidene difluoride (PVDF) membrane by electroblotting using a Tris glycine/methanol (10% v/v) buffer. Immobilized proteins were denatured and renatured by washing for thirty minutes at 4° C. with 6 M guanidine. HCl followed by washes in 1:1, 1:2 and 1:4 dilutions of 6M guanidine in HEPES binding buffer (25 mM HEPES pH 7.9, 4 mM KCl, 3 mM MgCl2). The membrane was blocked by washing for one hour in a 5% solution of non-fat dried milk (NDM) in binding buffer.
Hybridization of the labeled oligonucleotide (1-4×10^6 cpm) took place for two hours at 4° C. in HEPES binding buffer supplemented with 0.25% NDM, 0.05% Nonidet P […] salmon sperm DNA and […] of an unrelated, mixed sequence 35-mer oligonucleotide (5′-[…] CTTCCTTCCTCTCCA-3′SEQ ID No: 19). Membranes were washed in binding buffer and visualized by autoradiography.
The molecular weight of the nuclear protein was more accurately determined by Southwestern blotting. HeLa nuclear extracts were electrophoresed on an 8% polyacrylamide-SDS gel and transferred to a PVDF membrane. The membrane was blocked and cut into strips. Each strip was incubated at 4° C. with a 32P-labeled G-rich oligonucleotide in the presence of unrelated unlabeled double stranded and single stranded DNA to block non-specific binding.

[4] = Detection of G-quartets by UV thermal denaturation/renaturation; format: physicochemical; details: absorbance at 295 nm; FIG. 4
Procedure: Oligonucleotides were resuspended in Tm buffer (20 mM Tris HCl, pH 8.0, 140 mM KCl, 2.5 mM MgCl2) at a concentration such that A260=0.6 (molar concentrations ranged from […]). Samples were annealed by boiling for five minutes and allowing to cool slowly to room temperature and overnight incubation at 4° C. Thermal denaturation/renaturation experiments were carried out using an Amersham Pharmacia Biotech Ultrospec 2000 instrument equipped with a Peltier effect heated cuvette holder and temperature controller (Amersham Pharmacia Biotech). Absorbance at 295 nm was monitored over a temperature range of 25-95 or 20-90° C. at a heating/cooling rate of 0.5° C./min. To investigate the formation of G-quartet structures by the G-rich oligonucleotides, a U.V. melting technique described by […] et al. (1998) FEBS Lett. 435, 74-78 was used. This method relies on the fact that dissociation of G-quartets leads to a decrease in absorbance at 295 nm and is reported to give a more reliable indication of intramolecular G-quartet formation than measurement at 260 nm.

T2 sequence (P19338 whole entry): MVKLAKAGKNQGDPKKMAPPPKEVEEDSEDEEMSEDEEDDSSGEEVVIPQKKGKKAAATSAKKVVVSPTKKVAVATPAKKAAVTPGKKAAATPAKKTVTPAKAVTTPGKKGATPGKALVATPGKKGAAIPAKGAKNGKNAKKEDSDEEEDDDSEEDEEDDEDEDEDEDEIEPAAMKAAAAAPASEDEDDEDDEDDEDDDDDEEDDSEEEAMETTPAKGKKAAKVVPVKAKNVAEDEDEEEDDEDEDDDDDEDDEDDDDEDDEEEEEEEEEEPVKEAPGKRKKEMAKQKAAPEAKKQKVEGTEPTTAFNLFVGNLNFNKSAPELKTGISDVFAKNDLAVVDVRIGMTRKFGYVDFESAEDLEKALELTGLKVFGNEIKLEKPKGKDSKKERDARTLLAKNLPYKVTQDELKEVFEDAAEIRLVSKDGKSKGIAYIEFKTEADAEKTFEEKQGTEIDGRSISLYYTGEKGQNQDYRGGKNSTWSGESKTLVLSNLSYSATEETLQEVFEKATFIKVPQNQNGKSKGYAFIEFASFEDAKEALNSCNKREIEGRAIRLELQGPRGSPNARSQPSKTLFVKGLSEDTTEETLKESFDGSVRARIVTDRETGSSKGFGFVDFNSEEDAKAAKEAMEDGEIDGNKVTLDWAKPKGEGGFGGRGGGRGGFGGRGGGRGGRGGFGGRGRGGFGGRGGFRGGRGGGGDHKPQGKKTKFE
T1 sequence (P19338 whole entry): as above

5′-GTTGTTTGG GGTGGT-3′ (GTTGTTTGGGGTGGT; DNA, backbone not given here; further chemistry not fully specified) [GRO15A]
growth of MDA-MB-231 cells (MTT) [1]: modulated proliferation | protein-oligonucleotide complex band (EMSA) [2]: intense | hybridization to protein band at 106 kDa (Southwestern blot) [3]: hybridized to a single protein band at 106 kDa | G-quartet formation (UV annealing curve) [4]: suggestive of G-quartet formation

5′-TTTGGTGGTGGTGG TTGTGGTGGTGGTGG-3′ [GR029A]
growth of MDA-MB-231 cells (MTT) [1]: modulated proliferation | antiproliferative activity, MDA-MB-231 ([1]; single 10 uM dose, FIG. 7A): active | protein-oligonucleotide complex band (EMSA) [2]: intense | hybridization to protein band at 106 kDa (Southwestern blot) [3]: hybridized to a single protein band at 106 kDa | G-quartet formation (UV annealing curve) [4]: clearly indicating the presence of G-quartets
